Consider six compounds from patent publication US6448256B1, “Antibiotic prodrugs” (University of Massachusetts, priority 1999, dated 2002).

One test has as its system MRSA2. Description: MIC against methicillin-resistant S. aureus strain MRSA2. The class given is cell-based. Conditions: for MIC: Staphylococcus aureus, Table 5. The protocol: (§1) To further investigate the antibacterial and/or DNA pol III inhibitory activity of various drug compounds, various ester-containing moieties N-linked to the EMAU core were produced as described in Example 1. These prodrugs were assayed for inhibition of B. subtilis DNA pol III and antibiotic activity against a number of bacteria.
(§2) The minimal inhibitory concentrations (MICs) of the four N3-substituted agents and EMAU were determined for B. subtilis (BS), methicillin-sensitive and resistant S. aureus (SA & MRSA), vancomycin-sensitive and resistant E. fecalis (EF& VREF), vancomycin-resistant E. fecium (VREF*), and E. coli (EC) as a Gram-negative control.

The target in the next test is B. subtilis DNA pol III (Bacillus subtilis, UniProt P13267). Briefly: Inhibition of B. subtilis DNA pol III (Ki). The class given is biochemical. The protocol: as §1
B. subtilis DNA pol III, sequence (P13267 whole entry): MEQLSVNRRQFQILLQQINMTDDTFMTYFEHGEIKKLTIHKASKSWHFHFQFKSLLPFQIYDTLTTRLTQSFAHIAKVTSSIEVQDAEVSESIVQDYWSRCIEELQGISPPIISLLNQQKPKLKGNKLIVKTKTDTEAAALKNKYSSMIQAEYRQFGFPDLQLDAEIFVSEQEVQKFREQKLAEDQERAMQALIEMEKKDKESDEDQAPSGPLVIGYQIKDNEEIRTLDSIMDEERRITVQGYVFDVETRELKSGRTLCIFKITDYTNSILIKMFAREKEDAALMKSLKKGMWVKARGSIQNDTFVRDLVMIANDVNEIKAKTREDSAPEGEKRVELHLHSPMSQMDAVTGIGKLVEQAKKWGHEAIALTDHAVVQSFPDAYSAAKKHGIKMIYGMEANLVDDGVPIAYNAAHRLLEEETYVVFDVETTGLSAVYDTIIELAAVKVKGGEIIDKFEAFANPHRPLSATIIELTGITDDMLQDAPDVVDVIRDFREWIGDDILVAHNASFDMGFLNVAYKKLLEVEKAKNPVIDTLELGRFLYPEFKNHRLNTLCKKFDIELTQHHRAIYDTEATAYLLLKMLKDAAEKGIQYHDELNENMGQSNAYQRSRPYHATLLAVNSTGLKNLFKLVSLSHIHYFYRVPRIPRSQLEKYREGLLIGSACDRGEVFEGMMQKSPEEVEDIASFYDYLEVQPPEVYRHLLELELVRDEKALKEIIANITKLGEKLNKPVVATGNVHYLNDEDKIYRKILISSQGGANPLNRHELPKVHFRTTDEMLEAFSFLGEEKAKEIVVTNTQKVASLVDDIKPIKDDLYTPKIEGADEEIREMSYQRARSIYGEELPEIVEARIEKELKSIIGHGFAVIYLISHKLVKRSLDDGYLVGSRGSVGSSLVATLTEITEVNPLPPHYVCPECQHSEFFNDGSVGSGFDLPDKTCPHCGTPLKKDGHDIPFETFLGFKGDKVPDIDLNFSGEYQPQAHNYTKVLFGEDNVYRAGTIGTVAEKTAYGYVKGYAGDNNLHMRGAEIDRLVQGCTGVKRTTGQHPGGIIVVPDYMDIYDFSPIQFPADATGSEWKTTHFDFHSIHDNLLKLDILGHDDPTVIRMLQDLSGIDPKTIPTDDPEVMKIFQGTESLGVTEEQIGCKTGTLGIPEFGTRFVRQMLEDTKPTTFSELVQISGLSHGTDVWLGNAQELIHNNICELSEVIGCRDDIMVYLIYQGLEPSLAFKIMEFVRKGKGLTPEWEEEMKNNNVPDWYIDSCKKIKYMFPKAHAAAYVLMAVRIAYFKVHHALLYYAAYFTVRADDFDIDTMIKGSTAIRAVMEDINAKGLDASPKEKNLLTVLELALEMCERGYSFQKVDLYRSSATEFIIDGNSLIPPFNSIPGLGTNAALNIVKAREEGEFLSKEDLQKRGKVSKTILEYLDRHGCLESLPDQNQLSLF
(§3) The competitive inhibitor constants (Ki) of selected EMAU compounds were determined with three different pol Ills: the pol III enzyme from Bacillus subtilis (BS pol III), and the pol III enzymes of the clinically relevant pathogens, Enterococcus fecalis (EF pol III) and Staphylococcus aureus (SA pol 111).

In another test the test system is E. fecalis. Briefly: MIC against E. fecalis. The class given is cell-based. The conditions noted are these: for MIC: Table 5, vancomycin-sensitive, read-out: MIC EF. The protocol: as §1, §2
Another test concerns MRSA. Description: MIC against methicillin-resistant S. aureus strain MRSA / MRSA1. The class given is cell-based. Conditions: for MIC: Staphylococcus aureus, MRSA, Table 5. As for the experimental part:
as §1, §2

Another test relates to E. fecium. Description: MIC against E. fecium. The class given is cell-based. Conditions: Table 2. The protocol:
as §1

For test [1], the system named is vancomycin-resistant E. fecium. Description: MIC against vancomycin-resistant E. fecium (VRE, VREF*). The conditions noted are these: for MIC: Enterococcus, Table 5, vancomycin-resistant E. fecium. The class given is cell-based. The protocol:
as §1, §2

In test [2] the test system is B. subtilis. Description: MIC against B. subtilis. The class given is cell-based. Conditions: for MIC: Bacillus subtilis, Table 5, read-out: MIC BS. The protocol: as §1, §2
A further test relates to E. coli. Briefly: MIC against E. coli (Gram-negative control). The class given is cell-based. Conditions: for MIC: Escherichia coli, Table 5, Gram-negative control. As for the experimental part:
as §1, §2

Another test concerns S. aureus. Briefly: MIC against S. aureus (methicillin-sensitive). The class given is cell-based. Conditions: for MIC: Staphylococcus aureus, Table 5, methicillin-sensitive, read-out: MIC SA. The protocol: as §1, §2
The subject of test [3] is vancomycin-resistant E. fecalis. Briefly: MIC against vancomycin-resistant E. fecalis (VREF). The class given is cell-based. The conditions noted are these: Table 5, vancomycin-resistant E. fecalis. The protocol: as §2
The next test has as its target T1, SA pol III (Staphylococcus aureus, UniProt P0C1P9).
T1 sequence (P0C1P9 1-1435): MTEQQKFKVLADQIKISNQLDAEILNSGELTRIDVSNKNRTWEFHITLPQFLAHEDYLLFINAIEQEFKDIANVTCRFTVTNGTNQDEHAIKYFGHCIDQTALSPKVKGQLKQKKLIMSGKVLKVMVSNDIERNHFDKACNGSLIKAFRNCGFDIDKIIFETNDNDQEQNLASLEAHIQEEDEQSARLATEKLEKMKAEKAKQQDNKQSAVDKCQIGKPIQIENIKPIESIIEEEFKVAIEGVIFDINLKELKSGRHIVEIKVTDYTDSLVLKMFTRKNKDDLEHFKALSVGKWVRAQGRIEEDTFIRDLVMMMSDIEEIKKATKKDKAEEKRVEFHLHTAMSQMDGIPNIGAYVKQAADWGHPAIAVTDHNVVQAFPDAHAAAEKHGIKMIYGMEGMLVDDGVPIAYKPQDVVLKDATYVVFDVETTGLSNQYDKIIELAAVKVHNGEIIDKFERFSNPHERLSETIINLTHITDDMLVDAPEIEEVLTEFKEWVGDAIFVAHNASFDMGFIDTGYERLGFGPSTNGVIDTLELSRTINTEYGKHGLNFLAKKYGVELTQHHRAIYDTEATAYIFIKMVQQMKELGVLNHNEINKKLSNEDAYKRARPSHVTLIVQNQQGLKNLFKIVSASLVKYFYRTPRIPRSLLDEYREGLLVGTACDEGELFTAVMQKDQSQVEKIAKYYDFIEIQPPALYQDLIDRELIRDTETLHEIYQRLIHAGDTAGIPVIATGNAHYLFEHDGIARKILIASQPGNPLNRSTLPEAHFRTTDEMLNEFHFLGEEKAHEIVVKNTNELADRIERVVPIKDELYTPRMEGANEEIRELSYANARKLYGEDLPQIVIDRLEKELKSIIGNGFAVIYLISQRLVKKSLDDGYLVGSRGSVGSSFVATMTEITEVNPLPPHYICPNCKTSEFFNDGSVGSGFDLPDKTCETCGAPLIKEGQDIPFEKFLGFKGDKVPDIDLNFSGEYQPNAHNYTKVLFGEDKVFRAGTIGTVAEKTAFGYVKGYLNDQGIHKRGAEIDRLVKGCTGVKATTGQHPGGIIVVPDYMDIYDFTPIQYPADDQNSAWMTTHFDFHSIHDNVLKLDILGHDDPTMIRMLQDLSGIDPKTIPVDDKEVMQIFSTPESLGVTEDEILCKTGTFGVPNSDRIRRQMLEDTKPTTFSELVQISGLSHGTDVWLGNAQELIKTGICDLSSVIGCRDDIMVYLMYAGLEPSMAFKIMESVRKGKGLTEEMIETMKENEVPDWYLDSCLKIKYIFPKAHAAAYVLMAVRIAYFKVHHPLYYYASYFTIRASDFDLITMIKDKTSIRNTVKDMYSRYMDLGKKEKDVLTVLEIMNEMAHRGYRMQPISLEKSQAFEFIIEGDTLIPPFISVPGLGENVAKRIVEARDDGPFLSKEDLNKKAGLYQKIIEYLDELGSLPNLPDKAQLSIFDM
Description: Inhibition of S. aureus pol III (Ki). The class given is biochemical. Conditions: Table 4, average of 3 determinations, standard deviation 13.4%. As for the experimental part: as §3

Another test deals with EF pol III (Enterococcus faecalis, UniProt Q831W8). Briefly: Inhibition of E. fecalis pol III (Ki). The class given is biochemical. The protocol:
as §3

In test [4] the test system is S. aureus (methicillin-sensitive Smith strain). Description: ip/ip mouse protection against lethal S. aureus infection. The class given is in vivo, mice. As for the experimental part: Step 1: Screening—Each candidate prodrug is screened for activity in an ip/ip S. aureus protection model. Candidates that display efficacy equivalent to that of HB-EMAU and HB-IMAU are selected for advanced pharmacokinetic analysis and application in the more relevant mouse thigh model of infection.
The efficacy of the propyl derivatives was tested against murine staphylococcal infection in vivo. A simple “ip/ip” system was used, in which 20 gram mice (10 each) were injected ip (intraperitoneally) with a lethal dose (2.3×10^7 CFU) of the methicillin-sensitive Smith strain of S. aureus. The mice were then immediately injected ip with the antibiotic agent as a 1:9 mixture of DMSO:peanut oil. Vancomycin was used as the positive control drug.
Both hydroxybutyl compounds were tested at 10 mg/kg in the mouse protection experiment against lethal S. aureus infection described in Example 4 above.

Test [5] relates to B. subtilis. Description: Antibacterial activity of crude compounds made by small scale synthesis. The class given is cell-based. The conditions noted are these: Bacillus subtilis; crude reaction mixtures dissolved in DMSO, assayed directly. The protocol:
6-Anilinouracils were synthesized using small scale synthetic methods. One milligram quantities of 3-(3-methoxypropyl)-6-chlorouracil were heated with 42 substituted anilines in micro-test tubes at 130° C. for 20 minutes. The reaction mixtures were dissolved in DMSO and assayed directly for antibacterial activity.

Setting [6] is: Table 4, average of 3 determinations, standard deviation 13.4%, read-out: KI Bs pol III.
Setting [7] is: Table 4, average of 3 determinations, standard deviation 13.4%, read-out: KI EF pol III.

In brackets after ≈: the same amount, converted by molar mass. Read-outs that look alike come from different tables or passages of the source.

For orientation: Ki means a dissociation constant, usually derived from enzyme kinetics or from competition with a known ligand. For the compound `CCc1cc(Nc2cc(=O)n(CCCCOC(=O)C(C)N)c(=O)[nH]2)ccc1C` (stereo not drawn) [(CH2)4-OCOCHCH3NH3^+Cl^−], in the test on MRSA2 (Table 2), the “MIC MRSA2” value was 20 μ/ml. For the same compound, at B. subtilis DNA pol III (Table 2, prodrugs having the EMAU core, read-out: Ki B. subtilis DNA Pol III), the inhibition constant Ki was 0.18 µM. Moreover, the “MIC E. fecalis” value with E. fecalis (Table 2) is 10 μ/ml. Moreover, in the test with MRSA (Table 2), the “MIC MRSA” value turned out to be 20 μ/ml. Further, the “MIC E. fecium” value in the test with E. fecium was found to be 10 μ/ml. Besides, the “MIC VRE” value in test [1] (Table 2, vancomycin-resistant E. fecium) is given as 10 μ/ml. The “MIC B. subtilis” value with B. subtilis [2] (Table 2) worked out at 2.5 μ/ml. Further, the “MIC E. coli” value against E. coli (Table 2) is given as >20 μ/ml. Besides, the “MIC S. aureus” value in the test with S. aureus (Table 2) is given as 20 μ/ml.
The MIC is the smallest concentration in the dilution series that meets the test's criterion for growth inhibition. Turning to `CCc1cc(Nc2cc(=O)[nH]c(=O)[nH]2)ccc1C` [EMAU, 6-(3-ethyl-4-methylanilino)uracil, reference compound], the MIC in the test on MRSA2 is 25 mg/L (≈ 102 µM); with E. fecalis it was 25 mg/L (≈ 102 µM); in test [3] it was 25 mg/L (≈ 102 µM); against MRSA it was 25 mg/L (≈ 102 µM); in test [1], 25 mg/L (≈ 102 µM); with B. subtilis [2], 12 mg/L (≈ 48.9 µM). Moreover, the minimum inhibitory concentration (MIC) was > 35 mg/L with E. coli and 25 mg/L (≈ 102 µM) with S. aureus. In addition, the inhibitory constant (Ki) was 0.25 µM at B. subtilis DNA pol III (setting [6]), 0.81 µM on SA pol III and 0.26 µM on EF pol III.
Consider `CCc1cc(Nc2cc(=O)n(CCO)c(=O)[nH]2)ccc1C` [HE-EMAU], for which the MIC in the test with MRSA2 was 17.4 mg/L (≈ 60.1 µM); in the test with E. fecalis, 6.5 mg/L (≈ 22.5 µM); in test [3], 8.7 mg/L (≈ 30.1 µM); in the test on MRSA, 17.4 mg/L (≈ 60.1 µM); in test [1], 8.7 mg/L (≈ 30.1 µM); in the test with B. subtilis [2], 1.1 mg/L (≈ 3.8 µM). Also, the MIC against E. coli is > 35 mg/L; in the test on S. aureus, 8.7 mg/L (≈ 30.1 µM). In addition, the Ki was found to be 0.2 µM at B. subtilis DNA pol III (setting [6]), 0.98 µM on SA pol III and 0.17 µM on EF pol III (setting [7]).
In the case of `CCc1cc(Nc2cc(=O)n(CCCO)c(=O)[nH]2)ccc1C` [HP-EMAU], the minimal inhibitory concentration (MIC) against MRSA2 was found to be 8.3 mg/L (≈ 27.4 µM); with E. fecalis it was 4.1 mg/L (≈ 13.5 µM); in test [3] it was 4.1 mg/L (≈ 13.5 µM); against MRSA, 8.3 mg/L (≈ 27.4 µM); in test [1], 4.1 mg/L (≈ 13.5 µM); in the test on B. subtilis [2], 1 mg/L (≈ 3.3 µM). Besides, the MIC in the test with E. coli is > 35 mg/L; in the test with S. aureus it was 4.1 mg/L (≈ 13.5 µM). Moreover, the Ki on B. subtilis DNA pol III (setting [6]) was 0.33 µM; at SA pol III it was 0.42 µM; on EF pol III (setting [7]), 0.14 µM. This compound also came in with an animals protected in [4] (5 mg/kg ip) of 70%. Besides, in [4] (10 mg/kg ip, 10 mice, 2.3×10^7 CFU S. aureus Smith ip, DMSO:peanut oil 1:9), the protection of mice entry was “protected all mice”.
Consider `CCc1cc(Nc2cc(=O)n(CCOC)c(=O)[nH]2)ccc1C` [ME-EMAU], for which the MIC was 12.4 mg/L (≈ 40.9 µM) in the test with MRSA2; 6.2 mg/L (≈ 20.4 µM) with E. fecalis; 6.2 mg/L (≈ 20.4 µM) in [3]; 8.3 mg/L (≈ 27.4 µM) with MRSA; 8.3 mg/L (≈ 27.4 µM) in test [1]; 1 mg/L (≈ 3.3 µM) in the test on B. subtilis [2]. The MIC was > 35 mg/L with E. coli and 10.3 mg/L (≈ 34 µM) with S. aureus. In addition, the Ki came out at 0.19 µM on B. subtilis DNA pol III (setting [6]), 0.82 µM at SA pol III and 0.16 µM on EF pol III (setting [7]).
Regarding `CCc1cc(Nc2cc(=O)n(CCCOC)c(=O)[nH]2)ccc1C` [MP-EMAU], the MIC was 3.9 mg/L (≈ 12.3 µM) with MRSA2; 1.9 mg/L (≈ 5.99 µM) with E. fecalis; 1.9 mg/L (≈ 5.99 µM) in [3]; 3.9 mg/L (≈ 12.3 µM) in the test on MRSA; 3.9 mg/L (≈ 12.3 µM) in [1]; 0.5 mg/L (≈ 1.58 µM) in the test with B. subtilis [2]. For the same compound, the MIC against E. coli was > 35 mg/L; in the test with B. subtilis [5], 3.13 mg/L (≈ 9.86 µM); in the test on S. aureus it was 3.9 mg/L (≈ 12.3 µM). Besides, the inhibition constant (Ki) came to 0.24 µM on B. subtilis DNA pol III (setting [6]), 0.82 µM on SA pol III and 0.19 µM on EF pol III (setting [7]). In addition, the animals protected result in test [4] (10 mg/kg ip) was “roughly 50%”; in test [4] (lower dose (5 mg/kg) ip), “none”.
